Source: PubChem BioAssay AID1963838 (Molecular Pharmacology Branch, DTP, NCI, 2024)

Tested on: 855422-203-R-J1-PDC complex spheroid viability
Experiment: Anticancer human tumor 855422-203-R-J1-PDC patient-derived bladder carcinoma cell line growth inhibition [POLQ]
Details: for IC50: curve of first compound; for viability, T/C: stronger effect = lower value
Outline: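 PDC + HUVEC + MSC complex spheroids; POLQ inhibitors ± partner drugs; top conc. at/near clinical Cmax, else 10 microM (SN-38 1 microM), half-log dilutions; 37 degrees C, 5% CO2.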

[1] = second compound 0.0316 µM, first compound 0.0316 µM
[2] = second compound 0.0316 µM, first compound 0.1 µM
[3] = second compound 0.0316 µM, first compound 0.316 µM
[4] = second compound 0.0316 µM, first compound 1 µM
[5] = second compound 0.0316 µM, first compound 3.16 µM
[6] = second compound 0.0316 µM, first compound 10 µM
[7] = second compound 0.1 µM, first compound 0.0316 µM
[8] = second compound 0.1 µM, first compound 0.1 µM
[9] = second compound 0.1 µM, first compound 0.316 µM
[10] = second compound 0.1 µM, first compound 1 µM
[11] = second compound 0.1 µM, first compound 3.16 µM
[12] = second compound 0.1 µM, first compound 10 µM
[13] = second compound 0.316 µM, first compound 0.0316 µM
[14] = second compound 0.316 µM, first compound 0.1 µM
[15] = second compound 0.316 µM, first compound 0.316 µM
[16] = second compound 0.316 µM, first compound 1 µM
[17] = second compound 0.316 µM, first compound 3.16 µM
[18] = second compound 0.316 µM, first compound 10 µM
[19] = second compound 1 µM, first compound 0.0316 µM
[20] = second compound 1 µM, first compound 0.1 µM
[21] = second compound 1 µM, first compound 0.316 µM
[22] = second compound 1 µM, first compound 1 µM
[23] = second compound 1 µM, first compound 3.16 µM
[24] = second compound 1 µM, first compound 10 µM
[25] = second compound 3.16 µM, first compound 0.0316 µM
[26] = second compound 3.16 µM, first compound 0.1 µM
[27] = second compound 3.16 µM, first compound 0.316 µM
[28] = second compound 3.16 µM, first compound 1 µM
[29] = second compound 3.16 µM, first compound 3.16 µM
[30] = second compound 3.16 µM, first compound 10 µM
[31] = second compound 10 µM, first compound 0.0316 µM
[32] = second compound 10 µM, first compound 0.1 µM
[33] = second compound 10 µM, first compound 0.316 µM
[34] = second compound 10 µM, first compound 1 µM
[35] = second compound 10 µM, first compound 3.16 µM
[36] = second compound 10 µM, first compound 10 µM
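Note: spheroids exposed to compounds for seven days before readout.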

CC1COCCN1c1cc(C2(S(C)(=N)=O)CC2)nc(-c2ccnc3[nH]ccc23)n1 (stereo not given) + Nc1ccc(C#CCN(C(=O)Cc2ncc(C(F)(F)F)cc2C(F)(F)F)c2ccc(F)cc2)nn1
IC50 (second compound 0.0316 µM): 5.25 µM | IC50 (second compound 0.1 µM): 3.92 µM | IC50 (second compound 0.316 µM): 3.05 µM | IC50 (second compound 1 µM): 3.4 µM | IC50 (second compound 3.16 µM): 2.89 µM | IC50 (second compound 10 µM): 2.53 µM | viability, T/C [1]: 104% | viability, T/C [2]: 98.9% | viability, T/C [3]: 132% | viability, T/C [4]: 98.2% | viability, T/C [5]: 78.2% | viability, T/C [6]: 14.9% | viability, T/C [7]: 111% | viability, T/C [8]: 124% | viability, T/C [9]: 99.8% | viability, T/C [10]: 187% | viability, T/C [11]: 57.6% | viability, T/C [12]: 16.6% | viability, T/C [13]: 95.4% | viability, T/C [14]: 111% | viability, T/C [15]: 102% | viability, T/C [16]: 180% | viability, T/C [17]: 47.8% | viability, T/C [18]: 13.9% | viability, T/C [19]: 93.3% | viability, T/C [20]: 108% | viability, T/C [21]: 116% | viability, T/C [22]: 144% | viability, T/C [23]: 52.4% | viability, T/C [24]: 14.1% | viability, T/C [25]: 111% | viability, T/C [26]: 91.7% | viability, T/C [27]: 119% | viability, T/C [28]: 189% | viability, T/C [29]: 43.2% | viability, T/C [30]: 11.3% | viability, T/C [31]: 97.7% | viability, T/C [32]: 96.1% | viability, T/C [33]: 113% | viability, T/C [34]: 152% | viability, T/C [35]: 34.3% | viability, T/C [36]: 11.3%

CCc1cc2c(N3CCc4c(cc(Cn5ccnc5)cc4-c4cn(C)nc4C(F)(F)F)C3=O)ccnc2c(OC)n1 + Nc1ccc(C#CCN(C(=O)Cc2ncc(C(F)(F)F)cc2C(F)(F)F)c2ccc(F)cc2)nn1
IC50 (second compound 0.0316 µM): 9.24 µM | IC50 (second compound 0.1 µM): 9.09 µM | IC50 (second compound 0.316 µM): 6.82 µM | IC50 (second compound 1 µM): 8.55 µM | IC50 (second compound 3.16 µM): 7.63 µM | IC50 (second compound 10 µM): 6.77 µM | viability, T/C [1]: 107% | viability, T/C [2]: 142% | viability, T/C [3]: 133% | viability, T/C [4]: 93.7% | viability, T/C [5]: 87% | viability, T/C [6]: 46.4% | viability, T/C [7]: 125% | viability, T/C [8]: 142% | viability, T/C [9]: 130% | viability, T/C [10]: 93.1% | viability, T/C [11]: 76.3% | viability, T/C [12]: 45.8% | viability, T/C [13]: 136% | viability, T/C [14]: 147% | viability, T/C [15]: 133% | viability, T/C [16]: 88.1% | viability, T/C [17]: 72.6% | viability, T/C [18]: 39.4% | viability, T/C [19]: 98.1% | viability, T/C [20]: 121% | viability, T/C [21]: 109% | viability, T/C [22]: 115% | viability, T/C [23]: 72.2% | viability, T/C [24]: 46.5% | viability, T/C [25]: 148% | viability, T/C [26]: 131% | viability, T/C [27]: 125% | viability, T/C [28]: 124% | viability, T/C [29]: 72.6% | viability, T/C [30]: 43.1% | viability, T/C [31]: 98.9% | viability, T/C [32]: 122% | viability, T/C [33]: 112% | viability, T/C [34]: 111% | viability, T/C [35]: 72.6% | viability, T/C [36]: 38.5%

COc1ccc([C@@H](O)c2cc(-c3ncnc4cc(N5CCOCC5)ccc34)c(F)cc2Cl)nn1 + Nc1ccc(C#CCN(C(=O)Cc2ncc(C(F)(F)F)cc2C(F)(F)F)c2ccc(F)cc2)nn1
IC50 (second compound 0.0316 µM): > 10 µM | IC50 (second compound 0.1 µM): > 10 µM | IC50 (second compound 0.316 µM): > 10 µM | IC50 (second compound 1 µM): > 10 µM | IC50 (second compound 3.16 µM): > 10 µM | IC50 (second compound 10 µM): 9.83 µM | viability, T/C [1]: 110% | viability, T/C [2]: 105% | viability, T/C [3]: 89% | viability, T/C [4]: 94.5% | viability, T/C [5]: 106% | viability, T/C [6]: 58.4% | viability, T/C [7]: 91.8% | viability, T/C [8]: 104% | viability, T/C [9]: 104% | viability, T/C [10]: 98.1% | viability, T/C [11]: 106% | viability, T/C [12]: 59.4% | viability, T/C [13]: 115% | viability, T/C [14]: 126% | viability, T/C [15]: 86.4% | viability, T/C [16]: 98.5% | viability, T/C [17]: 110% | viability, T/C [18]: 54.3% | viability, T/C [19]: 99.8% | viability, T/C [20]: 96.8% | viability, T/C [21]: 93.4% | viability, T/C [22]: 104% | viability, T/C [23]: 111% | viability, T/C [24]: 51% | viability, T/C [25]: 94.6% | viability, T/C [26]: 105% | viability, T/C [27]: 87.5% | viability, T/C [28]: 94.2% | viability, T/C [29]: 90.7% | viability, T/C [30]: 57.4% | viability, T/C [31]: 92.3% | viability, T/C [32]: 92.5% | viability, T/C [33]: 98.3% | viability, T/C [34]: 86.2% | viability, T/C [35]: 98.6% | viability, T/C [36]: 49.3%

Cn1ncnc1[C@H]1c2n[nH]c(=O)c3cc(F)cc(c23)N[C@@H]1c1ccc(F)cc1 + Nc1ccc(C#CCN(C(=O)Cc2ncc(C(F)(F)F)cc2C(F)(F)F)c2ccc(F)cc2)nn1
IC50 (second compound 0.0316 µM): > 0.1 µM | IC50 (second compound 0.1 µM): > 0.1 µM | IC50 (second compound 0.316 µM): > 0.1 µM | IC50 (second compound 1 µM): > 0.1 µM | IC50 (second compound 3.16 µM): > 0.1 µM | IC50 (second compound 10 µM): > 0.1 µM | viability, T/C (second compound 0.0316 µM, first compound 0.000316 µM): 96.1% | viability, T/C (second compound 0.0316 µM, first compound 0.001 µM): 125% | viability, T/C (second compound 0.0316 µM, first compound 0.00316 µM): 96% | viability, T/C (second compound 0.0316 µM, first compound 0.01 µM): 82% | viability, T/C [1]: 110% | viability, T/C [2]: 132% | viability, T/C (second compound 0.1 µM, first compound 0.000316 µM): 88.6% | viability, T/C (second compound 0.1 µM, first compound 0.001 µM): 157% | viability, T/C (second compound 0.1 µM, first compound 0.00316 µM): 92% | viability, T/C (second compound 0.1 µM, first compound 0.01 µM): 104% | viability, T/C [7]: 119% | viability, T/C [8]: 147% | viability, T/C (second compound 0.316 µM, first compound 0.000316 µM): 91.7% | viability, T/C (second compound 0.316 µM, first compound 0.001 µM): 154% | viability, T/C (second compound 0.316 µM, first compound 0.00316 µM): 91.4% | viability, T/C (second compound 0.316 µM, first compound 0.01 µM): 106% | viability, T/C [13]: 96.2% | viability, T/C [14]: 181% | viability, T/C (second compound 1 µM, first compound 0.000316 µM): 98.8% | viability, T/C (second compound 1 µM, first compound 0.001 µM): 154% | viability, T/C (second compound 1 µM, first compound 0.00316 µM): 96% | viability, T/C (second compound 1 µM, first compound 0.01 µM): 93.2% | viability, T/C [19]: 115% | viability, T/C [20]: 153% | viability, T/C (second compound 3.16 µM, first compound 0.000316 µM): 92% | viability, T/C (second compound 3.16 µM, first compound 0.001 µM): 135% | viability, T/C (second compound 3.16 µM, first compound 0.00316 µM): 95.7% | viability, T/C (second compound 3.16 µM, first compound 0.01 µM): 106% | viability, T/C [25]: 134% | viability, T/C [26]: 122% | viability, T/C (second compound 10 µM, first compound 0.000316 µM): 93.2% | viability, T/C (second compound 10 µM, first compound 0.001 µM): 110% | viability, T/C (second compound 10 µM, first compound 0.00316 µM): 88.3% | viability, T/C (second compound 10 µM, first compound 0.01 µM): 100% | viability, T/C [31]: 102% | viability, T/C [32]: 132%

O=C(Nc1ccc(O)c(NS(=O)(=O)c2ccc(F)cc2)c1)c1ccc(-c2ccccc2)cc1 + Nc1ccc(C#CCN(C(=O)Cc2ncc(C(F)(F)F)cc2C(F)(F)F)c2ccc(F)cc2)nn1
IC50 (second compound 0.0316 µM): > 10 µM | IC50 (second compound 0.1 µM): > 10 µM | IC50 (second compound 0.316 µM): > 10 µM | IC50 (second compound 1 µM): > 10 µM | IC50 (second compound 3.16 µM): > 10 µM | IC50 (second compound 10 µM): > 10 µM | viability, T/C [1]: 93.4% | viability, T/C [2]: 119% | viability, T/C [3]: 108% | viability, T/C [4]: 88.1% | viability, T/C [5]: 105% | viability, T/C [6]: 77.5% | viability, T/C [7]: 95.5% | viability, T/C [8]: 105% | viability, T/C [9]: 94.5% | viability, T/C [10]: 103% | viability, T/C [11]: 117% | viability, T/C [12]: 63.8% | viability, T/C [13]: 91.3% | viability, T/C [14]: 114% | viability, T/C [15]: 102% | viability, T/C [16]: 99.2% | viability, T/C [17]: 106% | viability, T/C [18]: 77.4% | viability, T/C [19]: 92.8% | viability, T/C [20]: 92.8% | viability, T/C [21]: 95.5% | viability, T/C [22]: 95.2% | viability, T/C [23]: 112% | viability, T/C [24]: 73.6% | viability, T/C [25]: 93.6% | viability, T/C [26]: 94.2% | viability, T/C [27]: 91.3% | viability, T/C [28]: 96.3% | viability, T/C [29]: 93.7% | viability, T/C [30]: 62.2% | viability, T/C [31]: 92% | viability, T/C [32]: 90.1% | viability, T/C [33]: 89.2% | viability, T/C [34]: 88.7% | viability, T/C [35]: 95.1% | viability, T/C [36]: 51.5%
